In series [1] the target is T1, human μOR β-arrestin2 pathway (Homo sapiens, UniProt P35372).
T1 construct: β-galactosidase enzyme fragment (PathHunter complementation tag); host or cells: U2OS (U2OS/human μOR β-arrestin cells)
The experiment in a line: cell-based. The class given is cell-based. The note with it: for Emax: read-out: Max Effect ± SEM (%), µOR β-arrestin recruitment assay; for EC50: "-" = no measurable activity, read-out: EC50 (nM) (95% CI), µOR β-arrestin recruitment assay. On the procedure:
In this assay, optical signal values were detected employing the PathHunter® (DiscoverX, Shanghai, China) Detection Kit assay method. The agonistic activity of tested compounds on the human μOR β-arrestin2 pathway was quantified using a β-galactosidase-based enzyme fragment complementation assay. In brief, tested compound dilutions (with final concentrations of 100 μM, 50 μM, 10 μM, 1 μM, 500 nM, 100 nM, 50 nM, 10 nM, 1 nM, and 100 pM) were produced in saline or DMSO in triplicate. Next, 100 nL of the tested compound solution per well was dispensed into a 384-well cell culture plate. The U2OS/human μOR β-arrestin cells were resuspended in Opti-MEM and counted to achieve a cell density of 4000 cells per well, and 20 μL from each well was seeded into the 384-well cell culture plate. The plate was subsequently incubated at 37 °C in the dark for 120 min. Post-incubation, the cell plate was equilibrated to room temperature for 10–20 min, and 5 μL of the detection reagent were added to each well. Following a 60 min incubation at 25 °C, chemiluminescent readings were obtained using the envision system.
The cells were maintained at 37 °C with 5% CO2 in McCoy’s 5a medium with supplements and cultivated utilizing precise techniques to ensure accurate, reproducible results. Cells were gently dissociated for assays to maintain receptor integrity and resuspended in Opti-MEM® for compatibility with the PathHunter® (DiscoverX, Shanghai, China). Detection Kit. Cell density was adjusted to 4000 cells per well in a 384-well plate, to ensure that a uniform monolayer was established for the β-galactosidase assay. After seeding and incubation in the dark at 37 °C to facilitate cell attachment, the plates were equilibrated to room temperature prior to compound treatment. Serial dilutions of the compounds were assessed for pharmacological effect. A detection reagent was then added to measure β-galactosidase activity as indicative of μ-opioid receptor and β-arrestin2 interaction. Following reagent incubation, chemiluminescence was quantified, providing quantitative data on compound agonistic activity. Throughout, meticulous aseptic technique and strict adherence to protocols were imperative to ensure the integrity of the pharmacological data derived from these studies.

Series [2] addresses T2, human μ-opioid receptor (Homo sapiens, UniProt P35372).
T2 construct: expressed in transfected cells; host or cells: CHO (CHO/μOR cells)
The experiment in a line: cell-based. The class given is cell-based. The note with it: CHO/μOR cells; for EC50: cAMP inhibition, "-" = no measurable activity, read-out: EC50 (nM) (95% CI), µOR-Gi/o activation assay; for EC50 / Emax: n = 3; for Emax: at the concentration printed in parentheses in the cell, read-out: Max Effect ± SEM (%), µOR-Gi/o activation assay. The procedure:
The inhibition assay was performed as described previously. In brief, tested compound dilutions (with final concentrations of 100 µM, 50 µM, 10 µM, 1 µM, 500 nM, 100 nM, 50 nM, 10 nM, 1 nM, and 100 pM) were produced in saline or DMSO in triplicate. CHO/μOR cells were suspended in the assay buffer and counted, maintaining a cell density of 2000 cells per well, with 5 µL from each well seeded into a 384-well plate. Subsequently, 5 µL of the tested compound solution per well was dispensed into the plate, which was then placed in a 25 °C incubator and incubated in the dark for 30 min. Next, 10 µL of cAMP standard working solution was added to the empty wells of the plate, followed by the addition of 5 µL of Eu-cAMP and Anti-cAMP per well. The plate was subsequently placed back in a 25 °C incubator and further incubated in the dark for 1 h.
CHO cells expressing the human μ-opioid receptor were cultivated for the assessment of compound effects. […] Cells collected during the exponential phase of growth were dissociated without enzymes to preserve receptor integrity, resuspended in assay buffer, and counted to achieve a uniform concentration. Cell density was adjusted to 2000 cells per well in a 384-well plate, promoting uniform distribution and optimal receptor presence. Post-seeding at 25 °C in darkness facilitated cell adherence and stabilization prior to compound introduction. Compounds were added in serial dilutions, with meticulous dispensing techniques ensuring dose uniformity. Following a 1 h incubation at 25 °C, TR-FRET reagents were applied to measure cAMP levels, indicative of μOR activity. The Envision system recorded these levels, quantifying compound inhibitory effects. Meticulous aseptic techniques and vigilant monitoring were imperative throughout to guarantee data precision from the assay.

The subject of series [3] is mice. The experiment in a line: Acetic acid-induced writhing test. The note with it: 20 mg/kg i.v. tail vein. The class given is in vivo, CD-1 mice. The procedure:
(§1) Food and water were provided ad libitum.
The acetic acid-induced writhing test was performed as described previously. In brief, after pretreatment with the test compound at a dose of 20 mg/kg via intravenous tail vein injection, 1% (v/v) glacial acetic acid was administered intraperitoneally (i.p.) at a dose of 10 mL/kg. Subsequently, the number of writhing responses over a 20 min period was recorded. The antinociception rate was calculated as the percentage of maximal possible effect (%MPE), where %MPE = 100 × (NWV − NWT)/NWV. NWV and NWT represent the average number of writhing responses of the vehicle and test groups, respectively.

The test system of series [4] is mice. The experiment in a line: Formalin paw-licking test. The class given is in vivo, CD-1 mice. The note with it: 20 mg/kg i.v. tail vein, Phase II. The procedure:
as §1
The formalin injection assay was performed as described previously. […] After 15 min, 30 µL of a 2.7% formalin solution was administered into the right hind paw of each mouse. Then, the mice were put into the cage and their behaviors were observed. The antinociception rate was quantified as the percentage of maximal possible effect (%MPE), calculated as %MPE = 100 × (PLTV − PLTT)/PLTV; PLTV and PLTT represent the average paw-licking duration during Phase II for the vehicle and test groups, respectively.

Series [5] concerns mice. The experiment in a line: Physical dependence (naloxone-precipitated withdrawal jumping). Particulars: i.v. once daily for 5 days, PZM21 and 6a 20 mg/kg, morphine 2 mg/kg, jumps over 20 min.
Protocol: (§2) The mice were group-housed in a controlled temperature environment and subjected to a 12 h light/dark cycle (lights on from 07:00 to 19:00). Food and water were provided ad libitum. All animal procedures were conducted in accordance with the policies and recommendations of the International Association for the Study of Pain and the National Health and Animal Welfare Committee of the Beijing Institute of Pharmacology, with the aim of minimizing the number of animals used and their suffering.
In series [6] the test system is mice. The experiment in a line: Respiratory depression (blood pO2, blood gas analyzer). Particulars: single i.v. dose 20 mg/kg (morphine 4 mg/kg), 5-40 min.
Protocol: as §2
The test system of series [7] is mice. The experiment in a line: Hot-water tail withdrawal test. The class given is in vivo, CD-1 mice. The note with it: 20 mg/kg i.v. tail vein, 15 min post administration. The procedure: as §1
The hot-water tail withdrawal test was performed as described previously. In brief, the hot-water tail withdrawal test was conducted using a water bath maintained at 55 ± 0.5 °C. The distal 3 cm section of the mouse’s tail was immersed perpendicularly into the hot water. The duration for which the tail remained in the water was recorded as the initial tail withdrawal latency (TWL0). […] Following the administration of a single dose of the test compound (20 mg/kg, i.v.) or vehicle, the subsequent tail withdrawal latency (TWL) was measured at various time intervals (15, 30, 45, 60, and 90 min). To prevent potential tissue damage, a maximum cutoff latency of 16 s was enforced. Antinociception was quantified using the percentage of maximal possible effect (%MPE), calculated as %MPE = 100 × (TWL − TWL0)/(16 − TWL0).

Setting [8] is: U2OS/human μOR β-arrestin cells, at the concentration printed in parentheses in the cell, n = 3.
The mark [9] stands for this setting: U2OS/human μOR β-arrestin cells, n = 3.

Where two headings read alike, the source gives them in different places.

T1 sequence (P35372 whole entry, the tested form may be a part): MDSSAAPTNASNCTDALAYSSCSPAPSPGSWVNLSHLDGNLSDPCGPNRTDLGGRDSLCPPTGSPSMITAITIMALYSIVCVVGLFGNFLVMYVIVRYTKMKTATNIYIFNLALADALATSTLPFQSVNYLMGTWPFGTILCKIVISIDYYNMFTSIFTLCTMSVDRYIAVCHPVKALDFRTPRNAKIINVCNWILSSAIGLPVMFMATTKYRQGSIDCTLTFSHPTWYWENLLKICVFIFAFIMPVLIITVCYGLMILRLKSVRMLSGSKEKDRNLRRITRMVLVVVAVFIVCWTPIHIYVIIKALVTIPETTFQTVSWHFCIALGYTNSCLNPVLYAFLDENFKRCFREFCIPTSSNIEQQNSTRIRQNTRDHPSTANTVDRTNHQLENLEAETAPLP
T2 sequence (P35372 whole entry): as the sequence (P35372 whole entry, the tested form may be a part) above

On to `CN(C)[C@H](CNC(=O)NC1CCCCC1)Cc1cccc2ccccc12` [6l, (S)-1-cyclohexyl-3-(2-(dimethylamino)-3-(naphthalen-1-yl)propyl) urea], for which the figures for the Emax in series [1] (setting [8]) and in series [2] were 1.96 ± 0.45% and 18.1 ± 1.81%, respectively. Besides, the EC50 in series [1] (setting [9]) and in series [2] was > 100000 nM throughout.

For the molecule `C[C@@H](NC(=O)[C@@H](N)Cc1ccc(O)cc1)C(=O)NCC(=O)N(C)[C@@H](Cc1ccccc1)C(=O)NCCO` [DAMGO, [D-Ala2, N-MePhe4, Gly-ol]-enkephalin, reference compound], in series [1] (U2OS), the Emax was 91.2%.

Consider `Cc1ccccc1CCNC(=O)NC[C@H](Cc1cccc2ccccc12)N(C)C` [6f, (S)-1-(2-(dimethylamino)-3-(naphthalen-1-yl)propyl)-3-(2-methylphenethyl) urea], for which the “analgesia rate (%MPE), acetic acid-induced writhing” value (“analgesia rate (%MPE)” below) in series [3] was “exceeding 97%”. For the same molecule, the “antinociceptive efficacy (%MPE), formalin-induced paw licking, second phase” value in series [4] was 59.32%. Further, the Emax in series [1] (setting [8]) came to 5.45 ± 1.75%. Besides, the EC50 in series [1] (setting [9]) was > 100000 nM. In series [2], the “µOR agonist efficacy in Gi/o-protein signaling assay (in words)” value (“µOR agonist efficacy” for short) was “significant µOR agonist efficacy”, the EC50 is 107 nM and the Emax came out at 84.8 ± 1.86%.

In the case of `Cc1ccccc1NC(=O)NC[C@H](Cc1cccc2ccccc12)N(C)C` [6i, (S)-1-(2-(dimethylamino)-3-(naphthalen-1-yl)propyl)-3-(o-tolyl) urea], the Emax in series [1] (setting [8]) was 1.96 ± 0.72%; in series [2], 7.1 ± 0.77%. The EC50 in series [1] (setting [9]) and in series [2] was > 100000 nM throughout.

`COc1ccc(CCNC(=O)NC[C@H](Cc2cccc3ccccc23)N(C)C)cc1` [6e, (S)-1-(2-(dimethylamino)-3-(naphthalen-1-yl)propyl)-3-(4-methoxyphenethyl) urea]: the Emax in series [1] (setting [8]) is 2.95 ± 1.37%; in series [2], -1.41 ± 5.21%. Also, the EC50 in series [1] (setting [9]) and in series [2] was > 100000 nM throughout.

In the case of `CN(C)[C@H](CNC(=O)Nc1ccccc1)Cc1cccc2ccccc12` [6g, (S)-1-(2-(dimethylamino)-3-(naphthalen-1-yl)propyl)-3-phenyl urea], in series [1] (setting [8]), the Emax was 1.12 ± 0.52%. Further, the EC50 in series [1] (setting [9]) was > 100000 nM. In addition, in series [2], the “µOR agonist efficacy” value is listed as “significant µOR agonist efficacy”, the EC50 stood at 59.5 nM and the Emax turned out to be 24.6 ± 0.4%.

Consider `CN1CC[C@]23c4c5ccc(O)c4O[C@H]2[C@@H](O)C=C[C@H]3[C@H]1C5` [Morphine], for which, in series [5], the “physical dependence: jumping after naloxone-precipitated withdrawal vs vehicle” value is listed as “significantly greater frequency of jumping”. In addition, the “respiratory depression: partial pressure of oxygen in blood vs vehicle” value in series [6] is “significant reduction in the partial pressure of oxygen level”.

For the molecule `CN(C)[C@H](CNC(=O)NCCc1ccccc1)Cc1cccc2ccccc12` [6b, (S)-1-(2-(dimethylamino)-3-(naphthalen-1-yl)propyl)-3-phenethyl urea], the Emax stood at 1.99 ± 1.77% in series [1] (setting [8]) and 73.9 ± 2.38% in series [2]. Besides, the EC50 in series [1] (setting [9]) is > 100000 nM; in series [2], 110 nM. Further, in series [7], the “pain inhibition rate (%MPE), hot-water tail-withdrawal test” value is listed as 35.89%.

As for `CN(C)[C@H](CNC(=O)NCC1CCCCC1)Cc1cccc2ccccc12` [6k, (S)-1-(cyclohexylmethyl)-3-(2-(dimethylamino)-3-(naphthalen-1-yl)propyl) urea], the “analgesia rate (%MPE)” value in series [3] is recorded as “exceeding 97%”. Further, the Emax in series [1] (setting [8]) worked out at 4.15 ± 0.02%; in series [2], 20.4 ± 10.6%. Moreover, the EC50 in series [1] (setting [9]) and in series [2] was > 100000 nM in each case.

Take `Cc1ccccc1CNC(=O)NC[C@H](Cc1cccc2ccccc12)N(C)C` [6h, (S)-1-(2-(dimethylamino)-3-(naphthalen-1-yl)propyl)-3-(2-methylbenzyl) urea]: the “analgesia rate (%MPE)” value in series [3] is given as “exceeding 97%”. For the same molecule, the “antinociceptive efficacy (%MPE), formalin-induced paw licking, second phase” value in series [4] is on record as 78.03%. Further, the Emax in series [1] (setting [8]) stood at 2.19 ± 1.91%. For the same molecule, in series [1] (setting [9]), the EC50 was > 100000 nM. In series [2], the “µOR agonist efficacy” value is reported as “significant µOR agonist efficacy”, the EC50 amounted to 13.1 nM and the Emax stood at 41.7 ± 0.07%. Besides, the “pain inhibition rate (%MPE), hot-water tail-withdrawal test” value in series [7] was determined as 41.73%.

On to `CN(C)[C@H](CNC(=O)NCCc1ccc(F)cc1)Cc1cccc2ccccc12` [6d, (S)-1-(2-(dimethylamino)-3-(naphthalen-1-yl)propyl)-3-(4-fluorophenethyl) urea], for which the Emax in series [1] (setting [8]) is 7.72 ± 2.88%; in series [2], 87.8 ± 1.18%. Further, the values for the EC50 in series [1] (setting [9]) and in series [2] were > 100000 nM and 88 nM, respectively.

On to `CN(C)[C@H](CNC(=O)NCc1ccco1)Cc1cccc2ccccc12` [6j, (S)-1-(2-(dimethylamino)-3-(naphthalen-1-yl)propyl)-3-(furan-2-ylmethyl) urea], for which the Emax in series [1] (setting [8]) was 1.63 ± 0.32%. For the same molecule, the EC50 in series [1] (setting [9]) is > 100000 nM. Further, in series [2], the “µOR agonist efficacy” value is on record as “significant µOR agonist efficacy”, the EC50 turned out to be 97.8 nM and the Emax was 27.2 ± 1.71%.

In the case of `CN(C)[C@H](CNC(=O)NCc1ccc(F)cc1)Cc1cccc2ccccc12` [6c, (S)-1-(2-(dimethylamino)-3-(naphthalen-1-yl)propyl)-3-(4-fluorobenzyl) urea], the figures for the Emax in series [1] (setting [8]) and in series [2] were 1.06 ± 0.93% and 42.67 ± 0.27%, respectively. In addition, the EC50 in series [1] (setting [9]) is > 100000 nM; in series [2], 72.8 nM.

The values are drawn from publication PMC11243066, “Synthesis and Biological Evaluation of Novel Biased Mu-Opioid Receptor Agonists” (Molecules, 2024).
